According to patent US5468769A, “Paclitaxel derivatives” (Abbott Laboratories, priority 1993, dated 1995):
Values after ≈ are worked out from the molar mass of the structure shown. Where two headings read alike, the source gives them in different places.

Legend:
A549 = assay: In vitro tumor cell cytotoxicity (MTT colorimetric growth inhibition); type: cell-based; conditions: Homo sapiens
Method: (§1) The compounds of the present invention were tested for in vitro cytotoxic activity against the tumor lines A549 […], HT-29 […], B16F10 (mouse melanoma) and P-388 (mouse leukemia). Concentrations of 50% growth inhibition (IC50 's) were measured in a colorimetric assay for cytotoxic activity against cultured cells according to the protocol described below:
(§2) A three-day microtiter assay was used to measure the growth inhibition of cultured cells exposed to a range of drug concentrations. Metabolic activity, and thus the continued survival of cells exposed to the test compounds, was measured by the cells' ability to reduce the tetrazolium dye, MTT (3-(4,5-dimethyl-thiazol-2-yl-2,5-diphenyltetrazolium bromide) to a quantifiable colored end product, which absorbs at 570 nm in the visible spectrum.
(§3) Test compounds were dissolved in dimethyl sulfoxide (DMSO) and diluted, first with Earle's Balanced Salt Solution followed by culture medium, to twice the highest concentration of compound to be tested. From this concentrated stock, twofold serial dilutions were prepared in 96-well microtiter trays, each well containing twice the desired final concentration of compound. Each concentration was tested in triplicate and compared to triplicate drug-free controls.
(§4) The cells were grown in the same medium used for diluting the compounds and then harvested using trypsinization. This involved removing the medium by aspiration; rinsing the cell monolayer twice with Earle's Balanced Salt Solution; adding trypsin (0.05%)/EDTA (0.53 mM; for each 25 cm^2, approximately 0.2 mL), tilting to cover the monolayer, and then withdrawing trypsin leaving only a thin film of solution; incubating at room temperature until the cell monolayers detached (as determined by visual and/or microscopic observation); adding medium containing fetal calf serum to stop the action of the trypsin and resuspend the cells; triturating to aid dissociation of cell clumps; and determining the number of cells per milliliter by electronic cell counter (e.g. Coulter Counter) or by mixing an aliquot of cell suspension with Trypan Blue (0.4% in normal saline) and counting the viable cells using a hemacytometer.
(§5) After harvesting and determination of viable cell counts, cell density was adjusted to 25,000 cells/mL. Inoculum (0.1 mL) containing the cells was then added to each well for a final concentration of 2,500 cells per well. Addition of the inoculum diluted the test compounds to the desired final concentration.
(§6) Microtiter trays were then incubated for three days at 36 ° C. in a humidified atmosphere containing 5% carbon dioxide. After three days, 20 microtiters of 5 mg/mL MTT in phosphate-buffered saline solution were added to each well. Trays were returned to the incubator for two to four hours to allow the surviving cells to reduce the dye. Medium and unreduced dye were removed by aspiration. DMSO was added to each well to dissolve the water-insoluble, colored end product of the dye reduction so that it could be measured spectrophotometrically at 570 nm. The IC50 was determined as the concentration of compound tested required to reduce the absorbance at 570 nm to 50% of non-drug treated control values.

HT-29 = assay: as above; type: cell-based; conditions: Homo sapiens
Method: as §1, §2, §3, §4, §5, §6

B16F10 = assay: as above; type: cell-based, mouse; conditions: B16-F10, 72 h
Method: as §1, §2, §3, §4, §5, §6

P388 = assay: as above; type: cell-based, mouse; conditions: P388, 72 h
Method: as §1, §2, §3, §4, §5, §6

[1] = test system: advanced breast and ovarian cancers; conditions: cited from earlier work
[2] = test system: a number of other tumor types; conditions: preliminary investigations; cited from earlier work

Row | SMILES | IC50 (A549; 72 h, A549, three-day microtiter assay, MTT, 570 nm, read-out: IC50) | IC50 (HT-29; 72 h, HT-29, three-day microtiter assay, MTT, 570 nm, read-out: IC50) | IC50 (B16F10; B16F10 (mouse melanoma), three-day microtiter assay, MTT, 570 nm, read-out: IC50) | IC50 (P388; P-388 (mouse leukemia), three-day microtiter assay, MTT, 570 nm, read-out: IC50) | IC50 (A549; A549, 72 h) | IC50 (HT-29; HT-29, 72 h) | IC50 (B16F10; Mus musculus) | IC50 (P388; Mus musculus) | effectiveness in clinical trials [1] | activity against other tumor types [2]
1 | CC(=O)O[C@@H]1C2=C(C)[C@@H](OC(=O)[C@H](O)[C@@H](NC(=O)OC(C)(C)C)c3ccccc3)C[C@@](O)([C@@H](OC(=O)c3ccccc3)[C@@H]3[C@]4(OC(C)=O)CO[C@@H]4C[C@H](C)[C@@]13C=O)C2(C)C [Example 3, 8-tert-Butyloxycarbonylamino-α-hydroxybenzenepropanoic acid 4,9-bis(acetyloxy)-2-benzoyloxy-8-formyl-1.2.3.4.5.6.7.8.10.13.14-undecahydro-1-hydroxy-7.14.14.17-tetramethyl-1.10-methano-20H-cyclonona[2.3]benz[1.2.b]oxet-12-yl ester] | 9.8 ng/mL (≈ 0.0118 µM) | 5.4 ng/mL (≈ 0.00648 µM) | 4.6 ng/mL (≈ 0.00552 µM) | 8.3 ng/mL (≈ 0.00995 µM) |  |  |  |  |  | 
2 | CC(=O)O[C@@H]1C2=C(C)[C@@H](OC(=O)[C@H](O)[C@@H](NC(=O)c3ccccc3)c3ccccc3)C[C@@](O)([C@@H](OC(=O)c3ccccc3)[C@@H]3[C@]4(OC(C)=O)CO[C@@H]4C[C@H](C)[C@@]13C=O)C2(C)C [Example 4, β-Benzoylamino-α-hydroxybenzenepropanoic acid 4,9-bis(acetyloxy)-2-benzoyloxy-8-formyl-1.2.3.4.5.6.7.8.10.13.14-undecahydro-1-hydroxy-7.14.14.17-tetramethyl-1.10-m,ethano-20H-cyclonona[2.3]benz[1.2-b]oxet-12-yl ester] |  |  |  |  | 17 ng/mL (≈ 0.0203 µM) | 76 ng/mL (≈ 0.0907 µM) | 45 ng/mL (≈ 0.0537 µM) | 32 ng/mL (≈ 0.0382 µM) |  | 
3 | CC(=O)O[C@H]1C(=O)[C@@]2(C)[C@H]([C@H](OC(=O)c3ccccc3)[C@]3(O)C[C@H](OC(=O)[C@H](O)[C@@H](NC(=O)c4ccccc4)c4ccccc4)C(C)=C1C3(C)C)[C@]1(OC(C)=O)CO[C@@H]1C[C@@H]2O [Paclitaxol, Paclitaxel] |  |  |  |  | 3.4 ng/mL (≈ 0.00398 µM) | 2.5 ng/mL (≈ 0.00293 µM) | 3.1 ng/mL (≈ 0.00363 µM) | 9.6 ng/mL (≈ 0.0112 µM) | effective against advanced breast and ovarian cancers | promising activity against a number of other tumor types
